The experiment has as its target protein:farnesyltransferase (Oryctolagus cuniculus, UniProt G1SFC8+G1T7D9). The experiment in a line: Inhibition of protein:farnesyl transferase activity in rabbit reticulocyte lysate (Sepharose-bound peptide, 3H-FPP). In kind it is biochemical. The conditions noted are these: 80 pmol of pepAsep and pepBsep/5 µl beads, 0.7 µM ³H-FPP, 30 min at 37°C, read-out: IC₅₀-value. As to the method:
Commercially available rabbit reticulocyte lysate contains enzymes necessary for protein-isoprenylation, such as protein:farnesyl transferase activity (Vorburger, K., Kitten, G.T. and Nigg, E.G., EMBO J. 8 (1989) 4007-4013) and protein:geranylgeranyl transferase (Maltese, W.A. and Robishaw, J.D., J. Biol. Chem. 265 (1990) 18071-18074). Using pepAsep (example I) as substrate and pepBsep (example I) as control the assay of protein:farnesyl transferase activity was performed as follows: In 25 µl of a mixture containing 5 µl of pepAsep or pepBsep (both containing an equal quantity of peptide), 13 µl rabbit reticulocyte lysate (Promega), 0.5 mM MgCl₂, 1 mM DTT, 50 mM Tris-HCl (pH 7.4) and [³H]-farnesyl pyrophosphate (³H-FPP; concentration as indicated in the figures; specific radioactivity 15 Ci/mmol; ARC, USA) the incubation was performed at 37°C for 30 min with continuous shaking. […] The radioactivity bound to the Sepharose was measured in a Packard Tricarb liquid scintillation counter. […]
80 pmol of pepAsep and pepBsep/5 µl Sepharose were incubated for 30 minutes in the presence of 0.7 µM of [³H]-FPP and the indicated concentrations of the farnesyl pyrophosphate analogues FPPA1 and FPPA2 as mentioned in Example IV. The farnesylation activity was calculated as ³H-dpm bound to pepAsep minus the pepBsep-bound-dpm and expressed as percentage of control (without inhibitor). […]

This passage reports IC50 results from patent EP0621342A1, “Reagent and kit for determining isoprenylating activity and inhibition thereof” (NEDERLANDSE ORGANISATIE VOOR …, priority 1993, dated 1994).

Turning to `CC(C)=CCC/C(C)=C/CC/C(C)=C/COCP(=O)(O)CP(=O)(O)O` [FPPA1, (E,E) -[Hydroxy-(3,7,11-trimethyl-2,6,10-dodecatrienyloxymethylphosphinyl)methyl]phosphonic acid], the IC50 turned out to be 5.26 ± 1.1 µM.

On to `CC(C)=CCCC(C)=CCCC(C)=CCP(=O)(O)OP(=O)(O)O` [FPPA2, farnesyl phosphonophosphate], for which the IC50 stood at 0.29 ± 0.02 µM.
